Where a SMILES comes first, the peptide text is derived from it.
Columns and labels:
[1] = tested on: Aβ42; experiment: Thioflavin T (ThT) assay for Aβ fibrils; type: biochemical
Method: This method was the same as that published previously. Briefly, 60 µl samples of solutions containing Aβ42 (25 µM), ThT (15 µM) and between 0 and 125 µM RI-OR2 or RI-OR2–TAT, in 10 mM phosphate buffered saline (PBS), pH 7.4, were incubated in sealed, black, clear-bottomed 384-well plates (Corning). ThT fluorescence was monitored every 10 mins (λex = 442 nm, λem = 483 nm) for 48 h at 30°C in a Biotek Synergy 2 plate reader.

[2] = tested on: Aβ42; experiment: Immunoassay for Aβ oligomers (in vitro), 6E10/biotinylated 6E10 sandwich; type: biochemical; conditions: 2∶1 and 1∶1 molar ratios of inhibitor:Aβ42; 12.5 µM Aβ42, PBS pH 7.4, 25°C, even at earliest time points 4 and 8 h
Method: This is a more sensitive test than the ThT assay for the detection of early oligomeric forms of Aβ [16]. Microtitre plates (96-well, Maxisorb) were coated with 6E10, diluted 1∶1000 in 10 mM PBS, pH 7.4, for overnight at 4°C. The plates were blocked with assay buffer (Tris-buffered saline (TBS) (pH 7.4), containing 0.05% γ-globulins and 0.005% Tween 20) plus 5% gelatine for 1 h at 37°C. Samples of peptide (12.5 µM Aβ42 and 0, 3.125, 6.25, 12.5, 25 or 62.5 µM RI-OR2–TAT in 10 mM PBS, pH 7.4) were incubated at 25°C for 0, 4, 8, 24 or 48 h, diluted to 1 µM Aβ, and plated in triplicate. The plates were incubated for 1 h at 37°C and then washed with PBS plus 0.05% Tween-20 (PBST). A 1∶1,000 dilution of biotinylated 6E10 was then added to each well, left for 1 h at 37°C, and the plates were washed with PBST. Europium-linked streptavidin was then added to the wells at 1∶500 dilution in StrepE buffer (TBS containing 20 µM DTPA, 0.5% bovine serum albumin, and 0.05% γ-globulins), incubated for 1 h, and washed as before. Enhancer solution was added and the plates were read on a Wallac Victor 2 plate reader, using the time-resolved fluorescence setting for europium.

[3] = tested on: Aβ42; experiment: Atomic force microscopy (AFM) of Aβ42 aggregation; type: biochemical; conditions: 1∶2 molar ratio RI-OR2-TAT:Aβ42 (12.5 µM:25 µM), 24 h, PBS pH 7.4
Method: Aβ42 was incubated at 25 µM in the presence or absence of 12.5 µM RI-OR2-TAT in PBS, pH 7.4, for 24 h. Samples were diluted 1∶10 in PBS and then a 2 µl aliquot was deposited onto the surface of freshly cleaned mica and allowed to dry. Images were obtained in tapping mode using a Multimode™ SPM NanoScope IIIa microscope (Digital Instruments, New York, USA). Silicon cantilever tips measuring 125 µm long, 30 µm wide and with a tip radius <10 nm were used (Budget Sensors, Bulgaria). The resonance frequency was 300 kHz and force constants 40 N/m. All images were first order flattened and edited using WSxM 5.0 Develop 4.3 software, (Nanotech, Madrid, Spain).

[4] = tested on: activated microglia (Iba1) in APP/PS1 mouse cortex; experiment: Activated microglia, Iba1 immunostaining, cortex; type: in vivo; conditions: 100 nmol/kg i.p. once daily, 21 days, 10 months old APP/PS1 mice, vs saline, p<0.0001, 4 animals per group
Method: APPswe/PS1ΔE9 mice with a C57Bl/6 background (APP/PS1 mice) were obtained from the Jackson lab (http://research.jax.org/repository/alzheimers.html). […] To look at the effects of RI-OR2-TAT on mouse brain pathology (experiment 2), 8 female 10-months-old APP/PS1 mice were used. The animals were housed in single cages in a temperature controlled holding room (21.5°C±1) with 12∶12 h light and dark cycle. Food and water was available ad libitum.
For experiment 2, 4 animals were injected intraperitonially (i.p.) with 0.9% NaCl (vehicle control) and the other 4 with RI-OR2-TAT (100 nmol/kg in 0.9% NaCl) once daily, for 21 days. […]
For experiment 2 (effects on brain pathology), sections were examined for activated microglia (using anti-Iba-1 antibody), oxidative stress (anti-8-oxo-guanine antibody), immature neurons (anti-doublecourtin antibody) or total plaque load (anti-Aβ antibody). […] Oxidative stress was assessed by denaturing DNA in each section using 2N HCl and the sections were then stained for 8-oxo guanine (1∶200 dilution, MAB3560, Millipore). Young immature neurons were detected by immunostaining for doublecortin (1∶200 dilution, sc-66911, Santa Cruz Biotechnology). Total plaque load was quantified by immunostaining for β-amyloid (1∶200 dilution, Invitrogen, 71–5800).
All sections were visualized using an Axio Scope 1 fluorescence microscope (Zeiss, Germany). […]

CC(=O)N[C@H](CCCNC(=N)N)C(=O)NCC(=O)N[C@H](Cc1ccccc1)C(=O)N[C@H](Cc1ccccc1)C(=O)N[C@@H](C(=O)N[C@H](CC(C)C)C(=O)N[C@H](CCCCN)C(=O)NCC(=O)N[C@H](CCCNC(=N)N)C(=O)N[C@H](CCCNC(=N)N)C(=O)N[C@H](CCCNC(=N)N)C(=O)N[C@H](CCCNC(=N)N)C(=O)N[C@H](CCC(N)=O)C(=O)N[C@H](CCCNC(=N)N)C(=O)N[C@H](CCCNC(=N)N)C(=O)N[C@H](CCCCN)C(=O)N[C@H](CCCCN)C(=O)N[C@H](CCCNC(=N)N)C(=O)NCC(=O)N[C@H](Cc1ccc(O)cc1)C(N)=O)C(C)C [RI-OR2-TAT, Ac-rGffvlkGrrrrqrrkkrGy-NH2] (HELM PEPTIDE1{[ac].[dR].G.[dF].[dF].[dV].[dL].[dK].G.[dR].[dR].[dR].[dR].[dQ].[dR].[dR].[dK].[dK].[dR].G.[dY].[am]}$$$$V2.0)
ThT inhibition compared with RI-OR2 ([1]; 48 h, 25 µM Aβ42, PBS pH 7.4, same molar ratios): slightly better inhibitor than RI-OR2
ThT fluorescence after incubation of Aβ42 with inhibitor ([1]; 48 h, 30°C, 25 µM Aβ42, 15 µM ThT, 10 mM PBS pH 7.4, molar ratios 1∶1, 1∶2, 1∶4 and 1∶10 (inhibitor:Aβ42)): lower fluorescence
inhibition of Aβ42 aggregation (Fig. 1) ([1]; ThT, 25 µM Aβ42, 48 h, figure title): inhibit the aggregation of Aβ42
development of immunoassay signal (oligomer formation) [2]: considerably reduced the development of an immunoassay signal
inhibition of oligomer formation by AFM [3]: clear inhibition of oligomer formation
reduction of number of activated microglia [4]: 44%

Source: article PMC3561363, “A Novel Retro-Inverso Peptide Inhibitor Reduces Amyloid Deposition, Oxidation and Inflammation and Stimulates Neurogenesis in the APPswe/PS1ΔE9 Mouse Model of Alzheimer’s Disease” (PLoS ONE, 2013)
